In assay [1] the target is T1, HBc protein (HBV core protein), purchased (Hepatitis B virus ayw/France/Tiollais/1979, UniProt P03146).
T1 construct: gene C; purchased from Sino Biological; immobilised on CM5 chip
The assay is described as follows: SPR (Reichert4, CM5 chip). The class given is binding.

The target of assay [2] is T2, HBc (HBV core protein) in HepAD38 lysate (Hepatitis B virus ayw/France/Tiollais/1979, UniProt P03146).
T2 construct: gene C; full-length core expressed from the integrated tetracycline-regulated HBV genome of HepAD38 (HepG2-derived); freeze-thaw cell lysate
T2 sequence (P03146 whole entry): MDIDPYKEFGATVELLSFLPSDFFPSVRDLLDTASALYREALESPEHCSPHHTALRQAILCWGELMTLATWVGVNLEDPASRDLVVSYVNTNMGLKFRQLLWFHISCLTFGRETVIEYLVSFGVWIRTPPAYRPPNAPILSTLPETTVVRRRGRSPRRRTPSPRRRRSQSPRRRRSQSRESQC
The assay is described as follows: CETSA, Western blot. The assay is classed as biochemical. To be noted: cell lysate, 30 min at room temperature, then 37-72 °C for 3 min. Background: A western blot detects proteins with antibodies after separation by electrophoresis.

T1 sequence (P03146 whole entry): as above

On to `CC1(C)CC[C@]2(C(=O)O)CC[C@]3(C)[C@H](C(=O)C=C4[C@@]5(C)C=C(C#N)C(=O)C(C)(C)[C@@H]5CC[C@]43C)[C@@H]2C1` [CDDO, 2-cyano-3,12-dioxooleana-1,9-dien-28-oic acid], for which the SPR binding entry in assay [1] is “compounds CDDO-EA and CDDO exhibited weak binding kinetics to HBc protein”. Besides, in assay [2] (0.8 μM compound), the “thermal shift (right-shifted CETSA melting curve)” value was “CDDO-EA and CDDO treatments significantly stabilized HBc protein”.

For `CCNC(=O)[C@]12CCC(C)(C)C[C@H]1[C@H]1C(=O)C=C3[C@@]4(C)C=C(C#N)C(=O)C(C)(C)[C@@H]4CC[C@@]3(C)[C@]1(C)CC2` [CDDO-EA], the SPR binding result in assay [1] is “compounds CDDO-EA and CDDO exhibited weak binding kinetics to HBc protein”. The “thermal shift (right-shifted CETSA melting curve)” value in assay [2] (0.4 μM compound) was “CDDO-EA and CDDO treatments significantly stabilized HBc protein”.
